US10413556B1, “Production of insulin by testosterone olfaction” (priority 2019, dated 2019)
Values joined by “and” are separate entries in the source; they are usually repeats but may differ in a detail not shown here. Identical values can stand only once.

What was measured:
progesterone production = experiment: Progesterone olfaction in postmenopausal women; type: in vivo; conditions: 10 postmenopausal women; unpublished studies
From the text: (§1) These studies raised the question: is this action by olfaction unique to testosterone or can the effect be observed with other hormones? To answer this question, Applicant studied progesterone olfaction in 10 postmenopausal women. Progesterone is the primary female sex hormone and testosterone is the primary male sex hormone. […] This is a ground-breaking discovery: smelling the hormones that have been tested caused the body to produce the hormone that is smelled. However, it is still unknown whether hormone olfaction will work with hormones other than sex hormones.

blood sugar level = experiment: Blood sugar level in men before and after testosterone olfaction; type: in vivo
Description: To evaluate the possible role of testosterone in blood sugar reduction in diabetes type 2, the following protocol was designed.
Ten men between the ages of 30 to 90 volunteered to participate in this study as subjects. Approximately one and a half hours after having a meal the subject came to Applicant's office. Prior to the testosterone olfaction the blood sugar level was measured.
The subject produced an adequately sized drop of blood from a finger using a lancing device. The blood sugar was measured with a Contour Blood Glucose Monitoring System, Model 9546 C, Serial Number FB00450. The drop of blood was picked up by a Contour blood glucose test strip 7097C specific for the instrument and within the usable date range. This value was recorded as mg/dL.
A drop of pure testosterone diluted 1:1000 in ethanol was sprayed onto the palm of the hand and smelled by the subject. […] This concentration more efficient than the undiluted hormone.
A second blood drop was immediately taken and measured and recorded in the same manner as described above.

[1] = tested on: free testosterone production; experiment: Testosterone production after olfaction of testosterone or truffle extract; type: in vivo; conditions: olfaction of pure testosterone; unpublished research
From the text: Olfaction, the sense of smell, is critical for the survival of almost all creatures. Humans are able to distinguish over 10,000 different odor molecules. With every inhalation, currents of air swirl through the nostrils over the bony turbinates in the nose that contain receptors in the olfactory epithelium. Olfactory mucosa protects the olfactory epithelium and allows odors to dissolve for detection by olfactory receptors. The cilia projecting from the olfactory knob contain receptors for odorants. The cilia project from the knob directly into the […]. The interaction of the right molecule with the right receptor causes a structural transformation of the receptor, which gives rise to an electrical signal to the olfactory bulb and thence to the areas in the limbic brain that perceive it as the original smell.
as §1

insulin resistance = conditions: type 2 diabetic men with low testosterone, weekly injections for 24 weeks; cited from earlier work

Structure (SMILES): CC(=O)[C@H]1CC[C@H]2[C@@H]3CCC4=CC(=O)CC[C@]4(C)[C@H]3CC[C@]12C [progesterone]
- progesterone production after olfaction (progesterone production): does initiate production of progesterone

Structure (SMILES): C[C@]12CC[C@H]3[C@@H](CCC4=CC(=O)CC[C@@]43C)[C@@H]1CC[C@@H]2O [testosterone]
- percent reduction of sugar level, average for all ten (blood sugar level; average of ten subjects, after testosterone olfaction): 36%
- PERCENT CHANGE of blood sugar (blood sugar level; individual subject, before vs after olfaction of testosterone 1:1000 in ethanol): 56% and 30% (2×) and 38% and 19% and 17% and 34% and 70% and 53% and 12%
- blood sugar AFTER OLFACTION (blood sugar level; individual subject, measured immediately after smelling testosterone diluted 1:1000 in ethanol, about 1.5 h after a meal, finger blood): 86 mg/dL (2×) and 99 mg/dL (2×) and 109 mg/dL and 107 mg/dL and 130 mg/dL and 158 mg/dL and 98 mg/dL and 92 mg/dL
- effect of other concentrations compared with 1:1000 dilution (blood sugar level; prior studies, other concentrations of testosterone): essentially the same effect
- effect on blood sugar level (blood sugar level; testosterone olfaction used alone, ten men): lowers the blood sugar level
- time in which olfaction lowers blood sugar (blood sugar level; time to lance the finger, collect the blood and test): about 30 seconds
- testosterone production after olfaction [1]: does initiate testosterone production
- ability to utilize insulin (insulin resistance): improved
